Converted amounts (≈) assume the structure as drawn. The source made the active and inactive calls. The rule behind the calls is not given here.
Assays:
[1] = system: Bacillus spizizenii; assay: Antibacterial activity against Bacillus subtilis ATCC 6633 assessed as growth inhibition after 24 hrs by turbidimetric analysis; assay type: functional; conditions: ATCC 6633, 24 h
[2] = system: Staphylococcus aureus; assay: Antibacterial activity against Staphylococcus aureus ATCC 25923 assessed as growth inhibition after 24 hrs by turbidimetric analysis; assay type: functional; conditions: ATCC 25923, 24 h
[3] = system: Streptomyces scabiei; assay: Antibacterial activity against Streptomyces scabiei CGMCC4.7610246 assessed as growth inhibition after 36 hrs by turbidimetric analysis; assay type: functional; conditions: CGMCC4.7610246, 36 h
[4] = system: Bacillus spizizenii; assay: Antibacterial activity against Bacillus subtilis ATCC 6633 assessed as growth inhibition at 100 uM after 24 hrs by turbidimetric analysis; assay type: functional; conditions: for inhibition of growth at 100 µM: ATCC 6633, 24 h, read-out: GI
[5] = system: Staphylococcus aureus; assay: Antibacterial activity against Staphylococcus aureus ATCC 25923 assessed as growth inhibition at 100 uM after 24 hrs by turbidimetric analysis; assay type: functional; conditions: for inhibition of growth at 100 µM: ATCC 25923, 24 h, read-out: GI
[6] = system: Streptomyces scabiei; assay: Antibacterial activity against Streptomyces scabiei CGMCC4.7610246 assessed as growth inhibition at 100 uM after 36 hrs by turbidimetric analysis; assay type: functional, organism-based
[7] = system: Staphylococcus aureus; assay: Antibacterial activity against Staphylococcus aureus ATCC 25923 assessed as growth inhibition after 2 to 24 hrs; assay type: functional, organism-based
[8] = system: Escherichia coli; assay: Antibacterial activity against Escherichia coli assessed as growth inhibition at 100 uM after 24 hrs by turbidimetric analysis; assay type: functional, organism-based
[9] = system: Ralstonia solanacearum; assay: Antibacterial activity against Ralstonia solanacearum assessed as growth inhibition at 100 uM after 24 hrs by turbidimetric analysis; assay type: functional, organism-based

Row | SMILES | MIC [1] [µM] | MIC [2] [µM] | MIC [3] [µM] | growth inhibition (GI) [4] | growth inhibition (GI) [5] | growth inhibition (GI) [6] | further results
1 | CN[C@@H]1[C@H](O[C@H]2[C@H](O[C@H]3[C@H](O)[C@@H](O)[C@H](N=C(N)N)[C@@H](O)[C@@H]3N=C(N)N)O[C@@H](C)[C@]2(O)C=O)O[C@@H](CO)[C@H](O)[C@H]1O [STREPTOMYCIN] | 2 (≈ 1.16 µg/mL) | ≥ 100 | 4 (≈ 2.33 µg/mL) | – | – | – | –
2 | C[C@H]1[C@H](C)CC[C@]2(C(=O)OCc3ccccc3Cl)CC[C@]3(C)C(=CC[C@@H]4[C@@]5(C)[C@@H](O)[C@H](O)[C@H](O)C(C)(C)[C@@H]5CC[C@]43C)[C@H]12 | – | – | – | Active | Active | inactive | –
3 | CCCOC(=O)[C@]12CCC(C)(C)C[C@H]1C1=CC[C@@H]3[C@@]4(C)[C@@H](O)[C@H](O)[C@H](O)C(C)(C)[C@@H]4CC[C@@]3(C)[C@]1(C)CC2 | 64 (≈ 34 µg/mL) | 2 (≈ 1.06 µg/mL) | ≥ 100 | – | – | – | inhibition of growth at 100 µM [4]: > 95%; inhibition of growth at 100 µM [5]: > 95%; growth inhibition (GI) [7]: Dose-dependent effect
4 | CC1(C)CC[C@]2(C(=O)OCc3ccc([N+](=O)[O-])cc3)CC[C@]3(C)C(=CC[C@@H]4[C@@]5(C)[C@@H](O)[C@H](O)[C@H](O)C(C)(C)[C@@H]5CC[C@]43C)[C@@H]2C1 | – | – | – | Active | Active | inactive | –
5 | CC1(C)CC[C@]2(C(=O)OCc3ccccc3Cl)CC[C@]3(C)C(=CC[C@@H]4[C@@]5(C)[C@@H](O)[C@H](O)[C@H](O)C(C)(C)[C@@H]5CC[C@]43C)[C@@H]2C1 | – | – | – | Active | Active | inactive | –
6 | C[C@H]1[C@H](C)CC[C@]2(C(=O)OCc3ccccc3)CC[C@]3(C)C(=CC[C@@H]4[C@@]5(C)C=CC(=O)C(C)(C)[C@@H]5CC[C@]43C)[C@H]12 | – | – | – | Active | Active | Active | –
7 | CCCCCCCCCCCCCCCOC(=O)[C@]12CC[C@@H](C)[C@H](C)[C@H]1C1=CC[C@@H]3[C@@]4(C)[C@@H](O)[C@H](O)[C@H](O)C(C)(C)[C@@H]4CC[C@@]3(C)[C@]1(C)CC2 | – | – | – | Active | Active | – | –
8 | CC1(C)S[C@@H]2[C@H](NC(=O)[C@H](N)c3ccccc3)C(=O)N2[C@H]1C(=O)O [AMPICILLIN] | ≥ 100 | 4 (≈ 1.4 µg/mL) | ≥ 100 | – | – | – | –
9 | CC1(C)CC[C@]2(C(=O)OCc3ccc(Cl)cc3)CC[C@]3(C)C(=CC[C@@H]4[C@@]5(C)[C@@H](O)[C@H](O)[C@H](O)C(C)(C)[C@@H]5CC[C@]43C)[C@@H]2C1 | ≥ 100 | 64 (≈ 39.2 µg/mL) | ≥ 100 | – | – | inactive | –
10 | CC1(C)CC[C@]2(C(=O)O)CC[C@]3(C)C(=CC[C@@H]4[C@@]5(C)C=CC(=O)C(C)(C)[C@@H]5CC[C@]43C)[C@@H]2C1 | – | – | – | Active | Active | Active | –
11 | CC(C)OC(=O)[C@]12CCC(C)(C)C[C@H]1C1=CC[C@@H]3[C@@]4(C)[C@@H](O)[C@H](O)[C@H](O)C(C)(C)[C@@H]4CC[C@@]3(C)[C@]1(C)CC2 | 64 (≈ 34 µg/mL) | 8 (≈ 4.25 µg/mL) | ≥ 100 | – | – | – | inhibition of growth at 100 µM [4]: > 95%; inhibition of growth at 100 µM [5]: > 95%
12 | CCCOC(=O)[C@]12CC[C@@H](C)[C@H](C)[C@H]1C1=CC[C@@H]3[C@@]4(C)[C@@H](O)[C@H](O)[C@H](O)C(C)(C)[C@@H]4CC[C@@]3(C)[C@]1(C)CC2 | 32 (≈ 17 µg/mL) | 8 (≈ 4.25 µg/mL) | ≥ 100 | – | – | – | inhibition of growth at 100 µM [4]: > 95%; inhibition of growth at 100 µM [5]: > 95%
13 | C[C@H]1[C@H](C)CC[C@]2(C(=O)OCc3ccccc3)CC[C@]3(C)C(=CC[C@@H]4[C@@]5(C)[C@@H](O)[C@H](O)[C@H](O)C(C)(C)[C@@H]5CC[C@]43C)[C@H]12 | – | – | – | – | Active | – | –
14 | CCCCCOC(=O)[C@]12CCC(C)(C)C[C@H]1C1=CC[C@@H]3[C@@]4(C)[C@@H](O)[C@H](O)[C@H](O)C(C)(C)[C@@H]4CC[C@@]3(C)[C@]1(C)CC2 | – | – | – | Active | Active | – | –
15 | C[C@H]1[C@H](C)CC[C@]2(C(=O)OCc3ccc([N+](=O)[O-])cc3)CC[C@]3(C)C(=CC[C@@H]4[C@@]5(C)[C@@H](O)[C@H](O)[C@H](O)C(C)(C)[C@@H]5CC[C@]43C)[C@H]12 | – | – | – | Active | Active | inactive | –
16 | C[C@H]1[C@H](C)CC[C@]2(C(=O)OCc3ccccc3)CC[C@]3(C)C(=CC[C@@H]4[C@@]5(C)[C@H]6O[C@H]6C(=O)C(C)(C)[C@@H]5CC[C@]43C)[C@H]12 | – | – | – | Active | – | Active | –
17 | CCCCOC(=O)[C@]12CC[C@@H](C)[C@H](C)[C@H]1C1=CC[C@@H]3[C@@]4(C)[C@@H](O)[C@H](O)[C@H](O)C(C)(C)[C@@H]4CC[C@@]3(C)[C@]1(C)CC2 | 64 (≈ 34.9 µg/mL) | 8 (≈ 4.36 µg/mL) | ≥ 100 | – | – | – | inhibition of growth at 100 µM [4]: > 95%; inhibition of growth at 100 µM [5]: > 95%
18 | CC1(C)CC[C@]2(C(=O)O)CC[C@]3(C)C(=CC[C@@H]4[C@@]5(C)[C@@H](O)[C@H](O)[C@H](O)C(C)(C)[C@@H]5CC[C@]43C)[C@@H]2C1 | – | – | – | – | Active | – | –
19 | COC(=O)[C@]12CC[C@@H](C)[C@H](C)[C@H]1C1=CC[C@@H]3[C@@]4(C)[C@@H](O)[C@H](O)[C@H](O)C(C)(C)[C@@H]4CC[C@@]3(C)[C@]1(C)CC2 | 32 (≈ 16.1 µg/mL) | 8 (≈ 4.02 µg/mL) | 64 (≈ 32.2 µg/mL) | – | – | – | inhibition of growth at 100 µM [4]: > 95%; inhibition of growth at 100 µM [5]: > 95%
20 | CC1(C)CC[C@]2(C(=O)OCc3ccccc3[N+](=O)[O-])CC[C@]3(C)C(=CC[C@@H]4[C@@]5(C)[C@@H](O)[C@H](O)[C@H](O)C(C)(C)[C@@H]5CC[C@]43C)[C@@H]2C1 | – | – | – | Active | Active | inactive | –
21 | CCCCCOC(=O)[C@]12CC[C@@H](C)[C@H](C)[C@H]1C1=CC[C@@H]3[C@@]4(C)[C@@H](O)[C@H](O)[C@H](O)C(C)(C)[C@@H]4CC[C@@]3(C)[C@]1(C)CC2 | – | – | – | Active | Active | – | –
22 | CC1(C)CC[C@]2(C(=O)O)CC[C@]3(C)C(=CC[C@@H]4[C@@]5(C)[C@H]6O[C@H]6C(=O)C(C)(C)[C@@H]5CC[C@]43C)[C@@H]2C1 | – | – | – | Active | – | Active | –
23 | C[C@H]1[C@H](C)CC[C@]2(C(=O)OCc3ccccc3)CC[C@]3(C)C(=CC[C@@H]4[C@@]5(C)[C@H]6O[C@H]6[C@@H](O)C(C)(C)[C@@H]5CC[C@]43C)[C@H]12 | – | – | – | Active | Active | Active | growth inhibition (GI) [8]: Active; growth inhibition (GI) [9]: Active
24 | C[C@H]1[C@H](C)CC[C@]2(C(=O)OCc3ccccc3[N+](=O)[O-])CC[C@]3(C)C(=CC[C@@H]4[C@@]5(C)[C@@H](O)[C@H](O)[C@H](O)C(C)(C)[C@@H]5CC[C@]43C)[C@H]12 | – | – | – | Active | Active | inactive | –
25 | CCCCCCCCCCCCCCCOC(=O)[C@]12CCC(C)(C)C[C@H]1C1=CC[C@@H]3[C@@]4(C)[C@@H](O)[C@H](O)[C@H](O)C(C)(C)[C@@H]4CC[C@@]3(C)[C@]1(C)CC2 | – | – | – | Active | Active | – | –
26 | C[C@H]1[C@H](C)CC[C@]2(C(=O)O)CC[C@]3(C)C(=CC[C@@H]4[C@@]5(C)[C@@H](O)[C@H](O)[C@H](O)C(C)(C)[C@@H]5CC[C@]43C)[C@H]12 | – | – | – | Active | Active | Active | –
27 | CCCCOC(=O)[C@]12CCC(C)(C)C[C@H]1C1=CC[C@@H]3[C@@]4(C)[C@@H](O)[C@H](O)[C@H](O)C(C)(C)[C@@H]4CC[C@@]3(C)[C@]1(C)CC2 | ≥ 100 | 8 (≈ 4.36 µg/mL) | ≥ 100 | – | – | – | inhibition of growth at 100 µM [4]: > 95%; inhibition of growth at 100 µM [5]: > 95%
28 | C[C@H]1[C@H](C)CC[C@]2(C(=O)OCc3ccccc3)CC[C@]3(C)C(=CC[C@@H]4[C@@]5(C)[C@H]6O[C@H]6[C@H](O)C(C)(C)[C@@H]5CC[C@]43C)[C@H]12 | – | – | – | Active | Active | Active | growth inhibition (GI) [8]: Active; growth inhibition (GI) [9]: Active
29 | C[C@H]1[C@H](C)CC[C@]2(C(=O)OCc3ccc(Cl)cc3)CC[C@]3(C)C(=CC[C@@H]4[C@@]5(C)[C@@H](O)[C@H](O)[C@H](O)C(C)(C)[C@@H]5CC[C@]43C)[C@H]12 | – | – | – | Active | Active | inactive | –

Source: ChEMBL document CHEMBL3414456, “Pentacyclic triterpene derivatives possessing polyhydroxyl ring A inhibit gram-positive bacteria growth by regulating metabolism and virulence genes expression” (2015)
